How the values were obtained:
GR [1] = target: T1, GR (Homo sapiens, UniProt P04150); assay: GR binding (competitive, reversible); conditions: read-out: affinity for GR
T1 sequence (P04150 1-777): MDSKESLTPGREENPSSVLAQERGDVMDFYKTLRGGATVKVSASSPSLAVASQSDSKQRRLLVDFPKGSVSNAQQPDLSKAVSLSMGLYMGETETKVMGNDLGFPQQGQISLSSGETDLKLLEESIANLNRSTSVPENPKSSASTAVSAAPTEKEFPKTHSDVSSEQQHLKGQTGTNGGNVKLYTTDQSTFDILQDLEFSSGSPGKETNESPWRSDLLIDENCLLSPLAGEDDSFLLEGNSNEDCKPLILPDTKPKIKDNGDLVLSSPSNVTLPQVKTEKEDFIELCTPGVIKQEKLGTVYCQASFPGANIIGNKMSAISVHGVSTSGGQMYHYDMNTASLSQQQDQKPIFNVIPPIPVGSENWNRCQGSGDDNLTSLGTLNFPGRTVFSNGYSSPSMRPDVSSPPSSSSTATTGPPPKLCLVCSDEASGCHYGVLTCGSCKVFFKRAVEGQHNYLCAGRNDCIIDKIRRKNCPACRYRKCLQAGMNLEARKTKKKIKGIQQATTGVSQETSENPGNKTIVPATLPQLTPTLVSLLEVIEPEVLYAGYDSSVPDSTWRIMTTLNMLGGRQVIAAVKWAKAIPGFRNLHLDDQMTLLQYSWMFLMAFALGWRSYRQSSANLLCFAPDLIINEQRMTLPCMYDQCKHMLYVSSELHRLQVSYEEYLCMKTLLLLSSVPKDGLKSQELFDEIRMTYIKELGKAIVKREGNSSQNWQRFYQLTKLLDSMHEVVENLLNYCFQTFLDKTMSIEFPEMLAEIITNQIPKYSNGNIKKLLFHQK
Procedure: (§1) Dazucorilant is selective for GR over other nuclear hormone receptors, and a range of other receptors, enzymes, and ion channels. For example, dazucorilant has high selectivity for GR relative to the progesterone receptor (PR), androgen receptor, and estrogen receptor, showing no significant binding to these receptors at a concentration of 10 μM (0%, 1.5% and […], respectively).

GR [2] = target: T2, GR (Rattus norvegicus, UniProt P06536); assay: Inhibition of dexamethasone effect on TAT activity, rat hepatoma cell line; type: cell-based; conditions: read-out: Kc, inhibition of dexamethasone effects on TAT activity
T2 construct: endogenous in cells
T2 sequence (P06536 1-795): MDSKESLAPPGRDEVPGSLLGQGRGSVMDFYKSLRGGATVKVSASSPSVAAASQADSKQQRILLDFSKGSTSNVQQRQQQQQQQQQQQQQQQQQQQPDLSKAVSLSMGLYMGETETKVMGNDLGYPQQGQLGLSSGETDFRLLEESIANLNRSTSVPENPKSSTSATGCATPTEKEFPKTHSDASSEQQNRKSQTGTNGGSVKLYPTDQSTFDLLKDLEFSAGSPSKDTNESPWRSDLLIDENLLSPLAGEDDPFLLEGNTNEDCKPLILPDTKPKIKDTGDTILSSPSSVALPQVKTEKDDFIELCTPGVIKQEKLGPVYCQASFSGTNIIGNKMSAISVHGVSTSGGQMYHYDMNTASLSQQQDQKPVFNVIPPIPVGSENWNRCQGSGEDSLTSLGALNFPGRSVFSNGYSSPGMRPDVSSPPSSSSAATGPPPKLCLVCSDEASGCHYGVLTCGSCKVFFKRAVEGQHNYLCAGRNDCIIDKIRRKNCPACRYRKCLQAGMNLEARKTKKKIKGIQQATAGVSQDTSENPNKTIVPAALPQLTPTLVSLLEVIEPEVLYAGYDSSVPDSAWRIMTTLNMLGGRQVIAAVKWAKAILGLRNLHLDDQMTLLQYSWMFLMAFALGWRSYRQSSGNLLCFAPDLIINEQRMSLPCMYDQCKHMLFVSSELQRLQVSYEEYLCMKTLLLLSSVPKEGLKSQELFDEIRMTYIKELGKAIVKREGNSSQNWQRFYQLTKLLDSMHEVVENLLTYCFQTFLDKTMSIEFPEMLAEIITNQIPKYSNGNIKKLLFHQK

GR [3] = assay: Dexamethasone-induced TAT activity in primary hepatocytes from monkeys; type: cell-based
Procedure: as §1

[4] = Quantitative whole-body autoradiography (QWBA) study in rats; type: in vivo
Procedure: The in vivo distribution of dazucorilant was determined in a quantitative whole-body autoradiography (QWBA) study in rats. Following a single oral administration of ^14C-dazucorilant to male and female rats, radioactivity was steadily absorbed, with maximal tissue concentrations generally occurring at around 12 hours post-dose.

[5] = tested on: effect of prednisone on eosinophils, lymphocytes, neutrophils, osteocalcin; assay: First In Human study Part 3, proof of pharmacological effect (prednisone challenge); type: in vivo; conditions: prednisone+dazucorilant vs. prednisone alone
Text: Linear mixed model of PD parameter estimates from part 3 of the FIE study, including terms for treatment fitted as a fixed effect, subject fitted as a random effect, and baseline concentration values fitted as a covariate. AUEC, area under the effect curve; cfb, change from baseline; CI, confidence interval; Emax, maximum change; ns, not significant.

[6] = Safety and tolerability in healthy volunteers; type: in vivo
Procedure: (§2) An adaptive dose, double-blind, placebo-controlled study (NCT04249323, EudraCT 2019-004258-27) was conducted in 110 healthy male and female volunteers (18-60 years old; BMI 18-30 kg/m2; weight≤102 kg; “First In Human” (FIH) study).

GR [7] = target: T1, GR; assay: Dexamethasone-induced TAT activity in primary hepatocytes from humans; type: cell-based; parameters: endogenous in cells; host or cells: primary hepatocytes from humans
Procedure: as §1

[8] = First In Human study Part 1, single ascending dose PK with or without food; conditions: for AUC(0-inf)/D (adjusted geometric mean) / AUC(0-last)/D (adjusted geometric mean) / Cmax/D (adjusted geometric mean): single dose
Procedure: as §2
ANOVA model of natural log-transformed PK parameters from part 1 of the FIH study, including a term for treatment fitted as fixed effect. PK parameters normalized to the equivalent of a 1-mg dose. AUC, area under the curve; CI, confidence interval; Cmax, maximum concentration; D, dose.
ANOVA model of natural log-transformed PK parameters from part 1 of the FIH study, including a term for treatment fitted as fixed effect. CI, confidence interval; Cmax, maximum concentration; AUC, area under the curve.

[9] = first 24 hours after dosing, single oral dose, rats
[10] = 2-fold dose escalation, 450 mg to 900 mg fed
[11] = 3-fold dose escalation, 150 mg to 450 mg fasted

With `O=C(c1ccccn1)[C@]12Cc3cnn(-c4ccc(F)cc4)c3C=C1CCN(S(=O)(=O)c1ccc(C(F)(F)F)cc1)C2` [dazucorilant, (R)-(1-(4-fluorophenyl)-6-((4-(trifluoromethyl)phenyl)sulfonyl)-4,4a, 5,6,7,8-hexahydro-1-H-pyrazolo[3,4-g]isoquinolin-4a-yl) (pyridin-2-yl)methanone] the Ki (GR [1]) was 0.28 nM, the Ki (GR [2]) was 4.2 nM and the “dexamethasone-induced increase in TAT activity” value (GR [3]) was “prevented the dexamethasone-induced increase in TAT activity”. The “Tissue:blood ratio, brain” value [4, 9] was > 0.1, the “Tissue:blood ratio, spinal cord” value [4, 9] was > 0.1 and the “time of maximal tissue concentrations of radioactivity” value ([4]; single oral administration, male and female rats, post-dose) was “around 12 hours”. The “effect of dazucorilant on prednisone-induced changes in eosinophils, lymphocytes, osteocalcin, neutrophils” value [5] was “ameliorated the effect of prednisone on these parameters”, the “single doses considered safe and well tolerated” value ([6]; both, human, in vivo) was “up to 1000 mg” and the “serious or severe treatment-emergent adverse events” value ([6]; healthy volunteers) was “No serious or severe treatment-emergent adverse events were reported”. The “most common adverse events” value ([6]; human, in vivo) was “gastrointestinal, nervous system, musculoskeletal, and connective tissue disorders”, the safety concerns ([6]; human, in vivo) was “no significant safety concerns were identified” and the “severity of adverse events” value ([6]; human, in vivo) was “mild to moderate”. The “multiple doses considered safe” value ([6]; multiple doses QD) was “up to 300 mg QD”, the “multiple doses safe and generally well tolerated” value ([6]; multiple doses QD) was “up to 200 mg QD” and the “dexamethasone-induced increase in TAT activity” value (GR [7]) was “prevented the dexamethasone-induced increase in TAT activity”. The “AUC(0-inf)/D (adjusted geometric mean)” value ([8]; 150 mg FASTED) was 2.18 ng·h/mL/mg, the “AUC(0-last)/D (adjusted geometric mean)” value ([8]; 150 mg FASTED) was 1.69 ng·h/mL/mg and the “Cmax/D (adjusted geometric mean)” value ([8]; 150 mg FASTED) was 0.494 ng/mL/mg. The “exposure in fed vs fasted subjects” value ([8]; 300 mg with and without food, FIG. 1A/1B) was “Greater dazucorilant exposure was observed when dazucorilant was administered to fed subjects”, the “AUC(0-inf) Ratio Fed:Fasted” value ([8]; 450 mg) was 250.7% and the “AUC(0-last) Ratio Fed:Fasted” value ([8]; 450 mg) was 250.7%. For the same compound, the “Cmax Ratio Fed:Fasted” value ([8]; 450 mg) was 202.3%, the “AUC(0-inf) (adjusted geometric mean)” value ([8]; 450 mg FASTED) was 1290 ng·h/mL and the “AUC(0-last) (adjusted geometric mean)” value ([8]; 450 mg FASTED) was 1180 ng·h/mL. The “Cmax (adjusted geometric mean)” value ([8]; 450 mg FASTED) was 251 ng/mL, the “AUC(0-inf)/D (adjusted geometric mean)” value ([8]; 450 mg FASTED) was 2.86 ng·h/mL/mg and the “AUC(0-last)/D (adjusted geometric mean)” value ([8]; 450 mg FASTED) was 2.62 ng·h/mL/mg. For the same compound, the “Cmax/D (adjusted geometric mean)” value ([8]; 450 mg FASTED) was 0.557 ng/mL/mg, the “AUC(0-inf) (adjusted geometric mean)” value ([8]; 450 mg FED) was 3220 ng·h/mL and the “AUC(0-last) (adjusted geometric mean)” value ([8]; 450 mg FED) was 2950 ng·h/mL. The “Cmax (adjusted geometric mean)” value ([8]; 450 mg FED) was 508 ng/mL, the “AUC(0-inf)/D (adjusted geometric mean)” value ([8]; 450 mg FED) was 7.17 ng·h/mL/mg and the “AUC(0-last)/D (adjusted geometric mean)” value ([8]; 450 mg FED) was 6.56 ng·h/mL/mg. The “Cmax/D (adjusted geometric mean)” value ([8]; 450 mg FED) was 1.13 ng/mL/mg, the “AUC(0-inf)/D Ratio High:Low Dose” value ([8]; 450 mg vs 150 mg FASTED) was 131.3% and the “AUC(0-last)/D Ratio High:Low Dose” value ([8]; 450 mg vs 150 mg FASTED) was 155.2%. The “Cmax/D Ratio High:Low Dose” value ([8]; 450 mg vs 150 mg FASTED) was 112.9%, the “AUC(0-inf)/D (adjusted geometric mean)” value ([8]; 900 mg FED) was 10.2 ng·h/mL/mg and the “AUC(0-last)/D (adjusted geometric mean)” value ([8]; 900 mg FED) was 8.33 ng·h/mL/mg. For the same compound, the “Cmax/D (adjusted geometric mean)” value ([8]; 900 mg FED) was 1.23 ng/mL/mg, the “AUC(0-inf)/D Ratio High:Low Dose” value ([8]; 900 mg vs 450 mg FED) was 42.3% and the “AUC(0-last)/D Ratio High:Low Dose” value ([8]; 900 mg vs 450 mg FED) was 127.0%. The “Cmax/D Ratio High:Low Dose” value ([8]; 900 mg vs 450 mg FED) was 109.2%, the “increase in AUC(0-inf) on dose escalation” value [8, 10] was 2.8 fold and the “increase in Cmax on dose escalation” value [8, 10] was 2.2 fold. The “increase in AUC(0-inf) on dose escalation” value [8, 11] was 4.0 fold, the “increase in Cmax on dose escalation” value [8, 11] was 3.4 fold and the “food effect, increase in exposure” value ([8]; high-fat breakfast vs fasting (Table 2, 450 mg)) was > 2 fold.
